# US20140093459A1, “NOVEL COMPOUND” (DSM IP ASSETS B.V., priority 2009, published 2014)
# Experiments:
# [1] = Solubility of BMDBM or BEMT in C12-15 alkyl benzoate (saturation, HPLC of supernatant); type: physicochemical
# [2] = Solubility of BEMT in 1:1 (w/w) mixture C12-15 alkyl benzoate/PG-UVAB1 (dissolving, storage 1 month at RT); type: physicochemical
# [3] = Comparative: solubility of BMDBM in 1:1 (w/w) mixture of C12-15 alkyl benzoate and a polymeric or solid UV-filter (HPLC after 1 month at RT)
# From the text: Where necessary the mixture was centrifuged in order to obtain a clear supernatant.
# [4] = Reduction of solvent necessary to dissolve solid UV-filter; type: physicochemical
Molecule,Solubility in C12-15 alkyl benzoate ([1]; C12-15 alkyl benzoate alone (summary table)),"solubility in the cosmetic solvent C12-15 alkyl benzoate ([1]; C12-15 alkyl benzoate alone, saturation, HPLC of supernatant)","re-crystallization on storage ([2]; 200 mg BEMT in 800 mg 1:1 C12-15 alkyl benzoate/PG-UVAB1, stored 1 month at RT)","solubility of BEMT in 1:1 (w/w) mixture of C12-15 alkyl benzoate/PG-UVAB1 ([2]; 200 mg BEMT in 800 mg of the mixture, 1 month at RT)",Solubility of BEMT in C12-15 alkyl benzoate/PG-UVAB1 1:1 ([2]; 1:1 mixture with PG-UVAB1),Δ solubility related to cosmetic solvent (BEMT) ([2]; 1:1 mixture with PG-UVAB1),Δ solubility (BEMT) ([2]; 1:1 mixture with PG-UVAB1 versus C12-15 alkyl benzoate alone),"Increase of solubility of BEMT ([2]; BEMT, 1:1 mixture with PG-UVAB1 versus C12-15 alkyl benzoate alone)","Solubility of BMDBM in C12-15 alkyl benzoate/UV-filter 1:1 ([3]; 200 mg BMDBM with 1000 mg of 1:1 (w/w) mixture, supernatant HPLC after 1 month at RT)",Δ solubility related to cosmetic solvent (BMDBM) ([3]; 1:1 mixture C12-15 alkyl benzoate/UV-filter),Δ solubility (BMDBM) ([3]; 1:1 mixture with UV-filter versus C12-15 alkyl benzoate alone),amount of 1:1 (w/w) mixture of PG-UVAB1 and diisopropyl sebacate needed to dissolve 0.5 g BMDBM ([4]; 1:1 (w/w) PG-UVAB1/diisopropyl sebacate),amount of 1:1 (w/w) mixture of PG-UVAB2 and C12-15 alkyl benzoate necessary to dissolve 0.5 g BMDBM ([4]; 1:1 (w/w) PG-UVAB2/C12-15 alkyl benzoate)
"CCCCC(CC)COc1ccc(-c2nc(-c3ccc(OC)cc3)nc(-c3ccc(OCC(CC)CCCC)cc3O)n2)c(O)c1 (stereo not shown) [BEMT, bis-ethylhexyloxyphenol methoxyphenyl triazine]",13 wt.-%,13 wt.-%,no re-crystallization occurred,at least 20 wt.-%,20 wt.-%,+13.5 wt.-%,+7 wt.-%,+54%,3 wt.-%,−4 wt.-%,−11 wt.-%,–,–
butyl methoxydibenzoylmethane [BMDBM],–,–,–,–,–,–,–,–,–,–,–,1.4 g,1.5 g
